Data set [1] has as its system IL-2 activated PBMCs on TNF-α activated Ea.hy926 monolayers. Nature of the data set: PBMC adhesion to endothelial surfaces. The data set is classed as cell-based, human. The following applies: 0.5 mM LPG-Q or 0.56 mM LPG-Q-Sia3Lac. How it is done: Confluent Ea.hy926 monolayers seeded in a 48 well plate (30,000 cells/well) were activated with TNF-α (2000 U/mL, 3 hours). To obtain PBMCs, EDTA anticoagulated blood from healthy donors was subjected to ficoll density gradient centrifugation Histopaque™-1077 (Sigma Aldrich™). PBMCs were cultured for 24 h in RPMI-1640 containing 10% FBS (v/v), 1000 U/mL recombinant human IL-2 (Cedarlane™)^11 and 1% P/S. Prior to fluorescent labelling, cultured PBMCs were tested for absence of platelets by labelling an aliquot of cells with FITC-labelled anti-human […] (1:200 Beckman Coulter™) and analyzed by flow cytometry (CytoFLEX™, Beckman Coulter™). PBMCs containing <1% platelets were implemented for further study. The PBMC composition was also measured using a hematological analyzer (XN-550™ automated hematology analyzer, Sysmex Canada Inc.™). Following IL-2 treatment the typical composition of the PBMCs were ˜80% lymphocytes, 5% immature granulocytes, 2% basophils and 13% monocytes. […] PMBC adhesion was quantified by lysing the cells with RIPA buffer, spinning at 15,000 g to remove cell debris and measuring the fluorescent intensity of the CMFDA Dye in the lysate (λex/λem=492/517 nm using a plate reader (Spectramax3™, Molecular Devices™).

Data set [2] deals with Ea.hy926 cells co-cultured with HLA-A2-reactive CAR T cells. The format is cell-based. The following applies: effector:target 2:1, 1:2 and 1:10, 18 hours. How it is done:
The experiment was performed similar to previously described PBMC/Ea.hy926 co-culture experiments by replacing the effector with CAR-T cells. Ea.hy926 cells were engineered with polymers in UW solution as outlined. Cryopreserved CAR T cells were thawed using standard protocol41 and were pelleted and resuspended in phenol-free DMEM (5% FBS, pen/strep) at an effector (CAR-T cell) to target (Ea.hy926) ratios of 2:1, 1:2 and 1:10 (Vf=100 μL). After 18 hours, supernatants were removed from the wells and PBMCs were removed through centrifugation (300 g×5 minutes) and measured for LDH content to probe cell lysis using an LDH cytotoxicity assay (Biovision Inc.™). CAR-T cell-mediated cytotoxicity was calculated according to Eq. 2 replacing PBMC LDH release with CAR-T cell LDH release. LDH released by Ea.hy926 following 18 hour culture period that have not undergone polymer attachment and cultured in the absence of CAR-T cell is the 100% alive control and LDH released by Ea.hy926 following treatment with RIPA buffer for 10 minutes at ambient temperature is 100% dead control.

For data set [3], the system named is TNF-α activated Ea.hy926 cells co-cultured with IL-2 activated PBMCs. Nature of the data set: PBMC-mediated cytotoxicity (LDH assay).
Procedure: EA.hy 926 monolayers were activated using TNF-α and PBMCs were activated using IL-2 as described in PBMC adhesion experiments. Following activation, PBMC was collected and resuspended in DMEM (Phenol free, 5% FBS, pen/strep). PBMCs were then added to activated EA.hy 926 monolayers (modified and unmodified) to a final concentration of 0.15×10^6 cells/mL and left to incubate at 37° C. and 5% CO2 for 18 hour. After treatment, the supernatant was collected and cell debris was removed through centrifugation. LDH content was measured using LDC cytotoxicity assay (Biovision Inc.™). Cytotoxicity was calculated using the equation below;
where, LDHsample is the amount of LDH released from the sample, LDHPBMC is the amount of LDH released from PBMC samples not subjected to EA.hy 926 monolayers, LDHalive is the amount of LDH released from EA.hy 926 monolayers not subjected to PBMCs, and LDHdead is the amount of LDH released of EA.hy926 monolayers treated with RIPA buffer for 10 minutes at room temperature.

LPG = linear polyglycerol, Mn 14,900 Da

For “linear polyglycerol glutamine (Ac-GQQQLGGGGG-{LPG}; not fully specified; also: part of the polymer BODIPY FL-labelled in some experiments) [LPG-Q]”, the “reduction of PBMC adhesion to endothelial cells compared to the control” value in data set [1] was around 2.8 fold. Moreover, the “CAR-T cell induced endothelial cell cytotoxicity” value in data set [2] is listed as “reduced endothelial cytotoxicity”. In data set [3], the “immunosuppression on the cell surface compared with polymer in solution” value was “more potent immunosuppression than LPG-Q-Sia3Lac in solution”. For the same substance, the “PBMC-mediated endothelial cell death, in words” value in data set [3] (polymer ligated to cell surface) is reported as “suppress PBMC-mediated endothelial cell death”.
